Results on 9 compounds are retold here after patent US8501940B2, “Tetrahydrocinnoline derivatives” (Hoffmann-La Roche Inc., priority 2008, dated 2013).

Each structure is given as a SMILES string.

T1 sequence (P28845 whole entry): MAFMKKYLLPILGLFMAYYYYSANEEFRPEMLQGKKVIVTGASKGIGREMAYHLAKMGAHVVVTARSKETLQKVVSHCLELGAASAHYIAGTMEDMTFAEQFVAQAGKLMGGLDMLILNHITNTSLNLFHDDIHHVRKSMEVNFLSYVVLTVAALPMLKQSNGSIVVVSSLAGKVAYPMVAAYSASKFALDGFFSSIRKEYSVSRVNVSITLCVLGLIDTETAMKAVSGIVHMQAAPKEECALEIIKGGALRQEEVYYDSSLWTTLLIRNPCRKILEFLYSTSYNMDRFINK

In one experiment the test system is men.
Experiment: not given
Conditions: treatment with carbenoxolone in men; cited from earlier work.
Regarding `CC1(C)[C@@H](OC(=O)CCC(=O)O)CC[C@]2(C)[C@H]3C(=O)C=C4[C@@H]5C[C@@](C)(C(=O)O)CC[C@]5(C)CC[C@@]4(C)[C@]3(C)CC[C@@H]12` [carbenoxolone], the insulin sensitivity result is recorded as “increase in insulin sensitivity”.

Another experiment has as its target T1, human 11beta-HSD1 (Homo sapiens, UniProt P28845).
T1 construct: made in house; host or cells: HEK293 cells (ATCC CRL-1573), transient transfection with a pcDNA3 construct; microsomal fraction used
Nature of the experiment: Microsome assay (cortisone to cortisol conversion, ELISA detection). The class given is biochemical. The following applies: microsomes from HEK293 cells transiently expressing human 11beta-HSD1; Cortisone 50-200 nM, NADPH 1 mM; 60 min at 37° C.; cortisol by ELISA; read-out: h 11-beta-HSD 1 IC50. As for the experimental part:
The cDNA encoding the human 11beta-HSD1 protein was cloned into the expression vector pcDNA3 (Stratagene). This construct (for details see Alex Odermatt et al.; J Biol Chem., 1999, Vol. 274, Issue 40, 28762-28770) was used to transiently express the protein in HEK293 cells (ATCC number: CRL-1573, described in Graham, F. L., Smiley, J., Russell, W. C., Nairn, R.; (1977)) using lipofectamine. 48 h after transfection cells were washed twice with ice-cold PBS (Phosphate buffered Saline). To 1 volume of cell suspension in PBS 2 volumes of ice-cold lysis buffer (50 mM Tris; pH7.5; 1 mM EDTA; 100 mM NaCl) were added. The cells were lysed by Potter-homogenization (20 strokes). The resulting homogenate was sonicated with a tip sonicator (10% output; 2×30 sec.) and cleared by a low speed centrifugation (10 min×9000 g; 4° C.). The microsomal fraction was collected by a high speed centrifugation (60 min×110,000 g). The resulting pellet was resuspended in storage buffer (20 mM Tris pH 7.5; 1 mM EDTA; 10% Glycerol) and the centrifugation was repeated. The resulting pellet containing the microsomal fraction was again taken up into storage buffer and aliquots were kept frozen in liquid Nitrogen until use.
Microsomes isolated from HEK293 cells transiently expressing human 11beta-HSD1 (for details see above) were incubated in assay buffer (100 mM NaCl; 1 mM EDTA; 1 mM EGTA; 1 mM MgCl; 250 mM Sucrose; 20 mM Tris pH 7.4; Cortisone 50-200 nM and NADPH 1 mM) together with different concentrations of test substances. After 60 min. of incubation at 37° C. the assay was stopped by heating to 80° C. (5 min.) and by addition of the inhibitor Carbenoxolone (1 uM). The amount of Cortisol produced in this assay was determined using a commercially available, ELISA-based Cortisol-detection kit (Distributed by Assay Design, Inc.). Inhibitors were characterized by there IC50 values, e.g. the concentration at which the production of cortisol was 50% reduced.
A general note: An ELISA detects its analyte on a solid surface through an enzyme-linked reagent.
As a reminder, the IC50 is the concentration at which inhibition is half-maximal. Take `CC1(Cc2cc3c(nn2)C2CCC3CC2)CC1` [Example 8, 3-[(1-Methylcyclopropyl)methyl]-5,6,7,8-tetrahydro-5,8-ethanocinnoline]: the IC50 was determined as 6 pM.
Same read-out and setting: the figure for `CC(C)(C)c1cc2c(nn1)C1CCC2C12CC2` (stereo not drawn) [Example 2, (5′RS,8′SR)-3′-tert-butyl-5′,6′,7′,8′-tetrahydrospiro[cyclopropane-1,9′-[1′,2′]diaza[5′,8′]methanocinnoline]] is 20 pM; for `Cc1ccccc1-c1cc2c(nn1)C1CCC2C12CCCC2` (stereo not drawn) [Example 29, (5′RS,8′SR)-3′-(2-methylphenyl)-5′,6′,7′,8′-tetrahydrospiro[cyclopentane-1,9′-[1′,2′]diaza[5′,8′]methanocinnoline]] it is 1 pM; for `CC1(c2cc3c(nn2)C2CCC3C23CC3)CC1` (stereo not drawn) [Example 4, (5′RS,8′SR)-3′-(1-methylcyclopropyl)-5′,6′,7′,8′-tetrahydrospiro[cyclopropane-1,9′-[1′,2′]diaza[5′,8′]methanocinnoline]] it is 58 pM.
Regarding `Fc1ccc(-c2cc3c(nn2)C2CCC3C23CCCC3)c(C(F)(F)F)c1` (stereo not drawn) [Example 27, (5′RS,8′SR)-3′-[4-fluoro-2-(trifluoromethyl)phenyl]-5′,6′,7′,8′-tetrahydrospiro[cyclopentane-1,9′-[1′,2′]diaza[5′,8′]methanocinnoline]], the concentration for half-maximal inhibition (IC50) amounted to 1 pM.
Still for that read-out and setting: the figure for `CC(C)(C)c1cc2c(nn1)C1CCC2C12CC2` (single isomer, unassigned) [Example 2b, (5′S,8′R)-3′-tert-butyl-5′,6′,7′,8′-tetrahydrospiro[cyclopropane-1,9′-[1′,2′]diaza[5′,8′]methanocinnoline]] is 13 pM; for `CC1(Cc2cc3c(nn2)C2CCC3C23CCCC3)CC1` (stereo not drawn) [Example 12, (5′RS,8′SR)-3′-[(1-methylcyclopropyl)methyl]-5′,6′,7′,8′-tetrahydrospiro[cyclopentane-1,9′-[1′,2′]diaza[5′,8′]methanocinnoline]] it is 1 pM.
With `c1c(C2CC2)nnc2c1C1CCC2CC1` [Example 7, 3-Cyclopropyl-5,6,7,8-tetrahydro-5,8-ethanocinnoline], the half-maximal inhibitory concentration (IC50) stood at 47 pM.
